# Experiments:
# Type in all cases: in vivo
# [1] = system: paraquat resistant Lolium biotype RL 1; test: Greenhouse visual assessment of percentage control, Example 1; details: 14 days after applying
# Method: (§1) Aqueous herbicidal compositions comprising water and paraquat alone at various application rates, glufosinate ammonium alone at various application rates and compositions containing water and combinations of these two herbicides were applied over certain paraquat resistant plants. Ammonium sulphate was included in all of the compositions at a concentration of 1% w/v. The effectiveness of the composition in controlling the plants was assessed visually 14 days after applying the herbicide. The assessment was made as a percentage control −0% representing no damage and 100% representing death of all the plants. The plants used were two paraquat resistant Lolium biotypes (referred to as RL 1 and RL 2, collected in South Africa). The plants were grown in a greenhouse to the two-three true leaves stage before the herbicide was applied. Three replicates of each treatment were carried out.
# (§2) The results were analysed using the Colby formula which generates an expected level of control from the results obtained by using the individual components alone. This was compared with the actual level of control. The Colby formula predicts that the expected percentage level of control E for a particular combination of components is obtained as follows, in which P1 and P2 are the levels of control obtained by using the components alone
# (§3) The figures given in the Synergy column in the table below are the difference between the predicted level of control and the actual level of control. A figure of zero means that the actual result is as predicted by the Colby equation. Any number above zero represents evidence of synergy. Numbers below zero may represent antagonism.
# [2] = system: paraquat resistant Lolium biotype RL 2; test: as above; details: 14 days after applying
# Method: as §1, §2, §3
# [3] = system: paraquat resistant ryegrass (Lolium rigidum); test: Glasshouse test of sequential (split) application, visual percentage control, Example 3; details: 28 days after the initial application
# Method: A glasshouse test was conducted to examine the effect of applying the products sequentially (ie. in a split application), using paraquat resistant ryegrass (Lolium rigidum) plants. The plants were planted in pots and at the time of the initial application they were at the 4½ leaf stage. The treatments were based on commercial formulations of paraquat and glufosinate were diluted in water including the adjuvants AMS (5%) and Agral 90 (0.25%). The treatments' were applied to the plants in a spray volume equivalent to 400 lts/ha. Each treatment was replicated 3 times. The effectiveness of the treatments in controlling the plants was assessed visually 28 days after the initial application date. The assessment was made as a percentage control −0% representing no damage and 100% representing death of all the plants.
# [4] = system: paraquat susceptible ryegrass (Lolium rigidum); test: Glasshouse study, visual percentage control, Example 2; details: Paraquat Susceptible Population, 28 days after applying
# Method: (§4) A glasshouse study was conducted with two biotypes of ryegrass (Lolium rigidum), one paraquat resistant and the other paraquat susceptible. The plants (3 leaf stage) were planted in pots at a density of approximately 14,000 plants/m^2 to simulate field infestation levels. The treatments were based on commercial formulations of paraquat and glufosinate were diluted in water including the adjuvants AMS (5%) and Agral 90 (0.25%). The treatments were applied to the plants in a spray volume equivalent to 400 lts/ha. Each treatment was replicated three times. The effectiveness of the treatments in controlling the plants was assessed visually 28 days after applying the herbicide. The assessment was made as a percentage control −0% representing no damage and 100% representing death of all the plants.
# [5] = system: paraquat resistant ryegrass (Lolium rigidum); test: as above; details: Paraquat Resistant Population, 28 days after applying
# Method: as §4
# [6] = glufosinate ammonium 50 g/ha alone
# [7] = glufosinate ammonium 100 g/ha alone
# [8] = glufosinate ammonium 200 g/ha alone
# [9] = glufosinate ammonium 400 g/ha alone
# [10] = glufosinate ammonium 600 g/ha alone
structure (smiles),measurement,setting,value
"C[n+]1ccc(-c2cc[n+](C)cc2)cc1 [Paraquat, 1,1′-dimethyl-4,4′-bipyridylium cation]",Average % control of RL 1,[1]; paraquat 10 g/ha alone,0%
same,Average % control of RL 1,[1]; paraquat 20 g/ha alone,0%
same,Average % control of RL 1,[1]; paraquat 60 g/ha alone,0%
same,Average % control of RL 1,[1]; paraquat 80 g/ha alone,17%
same,Average % control of RL 1,[1]; paraquat 400 g/ha alone,33%
same,Average % control of RL 1,[1]; paraquat 1200 g/ha alone,33%
same,Average % control of RL 1,[1]; paraquat 2000 g/ha alone,98%
same,Average % control of RL 1,[1]; paraquat 4000 g/ha alone,100%
same,Average % control of RL 2,[2]; paraquat 10 g/ha alone,0%
same,Average % control of RL 2,[2]; paraquat 20 g/ha alone,0%
same,Average % control of RL 2,[2]; paraquat 60 g/ha alone,0%
same,Average % control of RL 2,[2]; paraquat 80 g/ha alone,0%
same,Average % control of RL 2,[2]; paraquat 400 g/ha alone,0%
same,Average % control of RL 2,[2]; paraquat 1200 g/ha alone,7%
same,Average % control of RL 2,[2]; paraquat 2000 g/ha alone,3%
same,Average % control of RL 2,[2]; paraquat 4000 g/ha alone,42%
same,% Control,[3]; 600 g ai/ha,58%
same,Percentage Control,[4]; Paraquat 600 g ai/ha,100%
same,Percentage Control,[5]; Paraquat 600 g ai/ha,29%
"CP(=O)(O)CCC(N)C(=O)O (racemic) [glufosinate ammonium, ammonium 4-[hydrox(methyl)phosphinoyl]-DL-homoalaninate]",Average % control of RL 1,[1]; [6],0%
same,Average % control of RL 1,[1]; [7],0%
same,Average % control of RL 1,[1]; [8],3%
same,Average % control of RL 1,[1]; [9],2%
same,Average % control of RL 1,[1]; [10],78%
same,Average % control of RL 2,[2]; [6],0%
same,Average % control of RL 2,[2]; [7],0%
same,Average % control of RL 2,[2]; [8],2%
same,Average % control of RL 2,[2]; [9],33%
same,Average % control of RL 2,[2]; [10],89%
same,% Control,[3]; 150 g ai/ha,0%
same,% Control,[3]; 200 g a/ha,33%
same,% Control,[3]; 300 g ai/ha,83%
same,Percentage Control,[4]; Glufosinate 300 g ai/ha,85%
same,Percentage Control,[5]; Glufosinate 300 g ai/ha,44%
